{"source": "patent US20220184034A1", "about": "“METHODS FOR TREATING CUTANEOUS METASTATIC CANCERS” (Adgero Biopharmaceuticals Holdings, Inc., priority 2020, published 2022)", "format_in_all_cases": "in vivo, patients", "key": {"[1]": {"test_system": "cutaneous lesions arising from either basal cell cancer, squamous cell cancer or CMBC", "test": "Phase 1/2 dose escalation study of SnET2 PDT: acute lesion reaction grade at Week 1", "conditions": "Week 1 post-treatment", "method": "Two Phase 1/2 studies established the clinical dosimetry. The first study was a dose escalation study that enrolled a total of 22 patients with cutaneous lesions arising from either basal cell cancer, squamous cell cancer or CMBC. A total of 213 lesions were treated using photosensitizer SnET2) doses ranging from 0.1-1.2 mg/kg, light doses of 100, 150 or 200 J/cm^2 and treatment timepoints of 24, 48, or 72 hours post-infusion. Two key measures were utilized in these studies, lesion reaction and lesion response. Lesion reaction was an acute characterization of the treatment effect that was performed out to 1 week post-treatment according to the following scale: • Grade 0=No visual erythema or edema • Grade 1=Faint erythema and/or slight edema • Grade 2=Moderate erythema and edema • Grade 3=Severe discoloration, edema, sloughing or eschar\nA further analysis was undertaken to explore the relationship between the acute lesion reaction and the lesion response. […] Following are the results from patients who were scored for lesion reaction at Week 1 post-treatment and who received a drug dose of 0.8 mg/kg or higher. […] For the 0.8 mg/kg cases, only 5 of the 37 lesions (14%) received the highest lesion reaction score. In the case of the 1.2 mg/kg dose group, the percentage of lesions with the maximum lesion reaction score, 13 of 22 (59%), was substantially higher."}, "[2]": {"test_system": "CMBC lesions", "test": "Four phase 2/3 studies of SnET2 PDT: lesion treatment response", "conditions": "1.2 mg/kg; for Responders / Response Rate of Evaluable Lesions: 200 J/cm^2, ~24 h, lesions larger than 1 cm; for lesion response rate: 200 J/cm^2", "method": "(§1) A factor that impacts clinical outcome is the time delay required for post-treatment effects to resolve. This factor is observed in the results from four subsequent phase 2/3 studies of CMBC lesions using a fixed drug dose of 1.2 mg/kg and a fixed light dose of 200 J/cm^2 administered at approximately 24 hours post-infusion. In these studies lesions were first scored for lesion reaction and then scored for lesion treatment response after the lesion reaction had resolved. In the case of lesion reaction scoring, the reaction was first assessed by the investigator at approximately 4-week intervals and assigned a Reaction Score according to the following defined terms: • 0=No erythema, edema or residual eschar • 1=Mild (faint) erythema and/or slight edema present • 2=Moderate erythema and edema present • 3=Severe erythema and edema present • 4=Sloughing, ulceration, and/or eschar present • 5=Eschar requiring debridement\n(§2) Once a lesion scored a Reaction Score of 0 or 1 it was deemed suitably healed for evaluation, at which time its treatment response was quantified by visual measurement of the two longest dimensions. In those cases where the patient left the study before a reaction score of 0-1 was reached, those lesions were classified as not evaluable.\n(§3) An analysis conducted of the median time to lesion evaluation (time to reach a reaction score of 0 or 1) in these same four phase 2/3 CMBC trials indicates the time delay for post-treatment effects to resolve was closely associated with the acute (week 1-2 post-treatment) lesion reaction score, with higher acute reaction scores being associated with a longer time to lesion evaluation, consistent with a more severe treatment reaction requiring a longer time to resolve. […] Because larger lesions are most likely to be clinically relevant, this table only includes those lesions from the same four CMBC phase 2/3 trials that had baseline dimensions larger than 1 cm."}, "[3]": {"test_system": "CMBC lesions", "test": "Four phase 2/3 studies of SnET2 PDT: lesion reaction score and time to lesion evaluation", "conditions": "1.2 mg/kg; for Median Evaluable Week / Total with Max Reaction During Trial ≥4: 200 J/cm^2, ~24 h, lesions larger than 1 cm; for median time to evaluation: 200 J/cm^2", "method": "Subsequent studies were conducted with dose parameters of 1.2 mg/kg of photosensitizer, 200 J/cm^2 of light, and 24 hours post administration as a treatment timepoint.\nas §1, §2, §3"}, "[4]": {"conditions": "acute lesion reaction score 0-1"}, "[5]": {"conditions": "acute lesion reaction score 2-3"}, "[6]": {"conditions": "acute lesion reaction score 4-5"}}}
{"substance": "tin ethyl etiopurpurin [SnET2]", "values": [{"measurement": "% with Max Rx Score at Week 1", "setting": "[1]; 0.8 mg/kg, 100 J/cm^2", "value": 0, "unit": "%"}, {"measurement": "Total with Max Rx Score at Week 1", "setting": "[1]; 0.8 mg/kg, 100 J/cm^2", "value": 0}, {"measurement": "% with Max Rx Score at Week 1", "setting": "[1]; 0.8 mg/kg, 150 J/cm^2", "value": 7, "unit": "%"}, {"measurement": "Total with Max Rx Score at Week 1", "setting": "[1]; 0.8 mg/kg, 150 J/cm^2", "value": 1}, {"measurement": "% with Max Rx Score at Week 1", "setting": "[1]; 0.8 mg/kg, 200 J/cm^2", "value": 27, "unit": "%"}, {"measurement": "Total with Max Rx Score at Week 1", "setting": "[1]; 0.8 mg/kg, 200 J/cm^2", "value": 4}, {"measurement": "lesions with the highest lesion reaction score", "setting": "[1]; 0.8 mg/kg", "value": "5 of the 37"}, {"measurement": "percentage of lesions with the highest lesion reaction score", "setting": "[1]; 0.8 mg/kg", "value": 14, "unit": "%"}, {"measurement": "% with Max Rx Score at Week 1", "setting": "[1]; 1.0 mg/kg, 100 J/cm^2", "value": 0, "unit": "%"}, {"measurement": "Total with Max Rx Score at Week 1", "setting": "[1]; 1.0 mg/kg, 100 J/cm^2", "value": 0}, {"measurement": "% with Max Rx Score at Week 1", "setting": "[1]; 1.0 mg/kg, 150 J/cm^2", "value": 0, "unit": "%"}, {"measurement": "Total with Max Rx Score at Week 1", "setting": "[1]; 1.0 mg/kg, 150 J/cm^2", "value": 0}, {"measurement": "% with Max Rx Score at Week 1", "setting": "[1]; 1.0 mg/kg, 200 J/cm^2", "value": 0, "unit": "%"}, {"measurement": "Total with Max Rx Score at Week 1", "setting": "[1]; 1.0 mg/kg, 200 J/cm^2", "value": 0}, {"measurement": "% with Max Rx Score at Week 1", "setting": "[1]; 1.2 mg/kg, 100 J/cm^2", "value": 33, "unit": "%"}, {"measurement": "Total with Max Rx Score at Week 1", "setting": "[1]; 1.2 mg/kg, 100 J/cm^2", "value": 2}, {"measurement": "% with Max Rx Score at Week 1", "setting": "[1]; 1.2 mg/kg, 150 J/cm^2", "value": 78, "unit": "%"}, {"measurement": "Total with Max Rx Score at Week 1", "setting": "[1]; 1.2 mg/kg, 150 J/cm^2", "value": 7}, {"measurement": "% with Max Rx Score at Week 1", "setting": "[1]; 1.2 mg/kg, 200 J/cm^2", "value": 57, "unit": "%"}, {"measurement": "Total with Max Rx Score at Week 1", "setting": "[1]; 1.2 mg/kg, 200 J/cm^2", "value": 4}, {"measurement": "lesions with the maximum lesion reaction score", "setting": "[1]; 1.2 mg/kg", "value": "13 of 22"}, {"measurement": "percentage of lesions with the maximum lesion reaction score", "setting": "[1]; 1.2 mg/kg", "value": 59, "unit": "%"}, {"measurement": "Responders", "setting": "[2]; [4]", "value": 48}, {"measurement": "Response Rate of Evaluable Lesions", "setting": "[2]; [4]", "value": 63, "unit": "%"}, {"measurement": "Responders", "setting": "[2]; [5]", "value": 168}, {"measurement": "Response Rate of Evaluable Lesions", "setting": "[2]; [5]", "value": 81, "unit": "%"}, {"measurement": "Responders", "setting": "[2]; [6]", "value": 179}, {"measurement": "Response Rate of Evaluable Lesions", "setting": "[2]; [6]", "value": 88, "unit": "%"}, {"measurement": "lesion response rate", "setting": "[2]; acute lesion reactions of 2-3", "value": 81, "unit": "%"}, {"measurement": "lesion response rate", "setting": "[2]; acute reactions of 4-5", "value": 88, "unit": "%"}, {"measurement": "healing following treatment", "setting": "[3]; 200 J/cm^2, 24 hours post administration", "value": "slow healing following treatment was observed"}, {"measurement": "Median Evaluable Week", "setting": "[3]; [4]", "value": 1, "unit": "Week"}, {"measurement": "Total with Max Reaction During Trial ≥4", "setting": "[3]; [4]", "value": 14}, {"measurement": "Median Evaluable Week", "setting": "[3]; [5]", "value": 6, "unit": "Week"}, {"measurement": "Total with Max Reaction During Trial ≥4", "setting": "[3]; [5]", "value": 165}, {"measurement": "Median Evaluable Week", "setting": "[3]; [6]", "value": 12, "unit": "Week"}, {"measurement": "Total with Max Reaction During Trial ≥4", "setting": "[3]; [6]", "value": 496}, {"measurement": "median time to evaluation", "setting": "[3]; acute lesion reactions of 2-3", "value": 6, "unit": "weeks"}, {"measurement": "median time to evaluation", "setting": "[3]; acute reactions of 4-5 (eschar or ulceration)", "value": 12, "unit": "weeks"}]}
